# Experimental data reported in a melting point compilation (Tetko et al.; mined from patent text by program, amines drawn as free bases though some values may be those of a salt).
row,SMILES,melting point [°C]
1,COc1cccc(Sc2cccc(N)c2C#N)c1,79 to 81
2,Cc1cc(C#N)cc(C)c1OCCCc1cncs1,71 to 73
3,O=C(O)CN1C(=O)C(=Cc2ccc([N+](=O)[O-])cc2)SC1=S,274 to 277
4,Cc1cc(=O)n2cccc(OCc3ccc(Cl)cc3Br)c2n1,182 to 184
5,COc1ccc(-c2nc(C(O)C(F)(F)F)[nH]c2-c2ccc(OC)cc2)cc1 (stereo unspecified),242 to 245
6,O=C(O)CNC=C(Nc1cc(Cl)cc(Cl)c1)[N+](=O)[O-],207
7,Sc1nccn1Cc1ccccc1Cl,206 to 207
8,COc1nccc(-c2ccc3cc(N(C)C)ccc3c2)c1C#N,150 to 151
9,CCCC(O)(CCC)c1c2c(nn1C)N(c1c(C)cc(C)cc1Cl)CCC2,129 to 130
10,CC(C)(CO)NC(=O)CBr,107 to 109
11,CCOC(=O)c1cc2ccnc(Cl)c2[nH]1,152 to 157
12,Cn1nc(Br)c([N+](=O)[O-])c1Br,154
13,COC(=O)c1cc(Cl)c(N)cc1O,138 to 139
14,CCOC(=O)c1ncn2c1CN=C(c1cccs1)c1cc(C#C[Si](C)(C)C)ccc1-2,124 to 127
15,CCNC(=O)n1nc(Oc2ncc(C(F)(F)F)cc2Cl)cc1C,85 to 86
16,CCOC(=O)c1c(CCCN(CC)CC)nc2cc(OC)c(OC)cc2c1-c1ccc(OC)c(OC)c1,96 to 98
17,Fc1ccc(CN2CC=C(c3cc4ccccc4s3)CC2)cc1,142 to 144
18,O=[N+]([O-])c1cc(Cl)c(OCC(F)(F)F)cc1F,54 to 55
19,CC(C)Oc1nccc2c1C(c1ccccc1C(F)(F)F)c1c(ccnc1OC(C)C)N2,196 to 197
20,CCOC(=O)c1cc2c(OC=O)c(OC[C@H]3CO3)ccc2[nH]1,123 to 125
21,O=S1CCc2n[nH]c(CCCN3CCN(c4ccc(F)cc4)CC3)c2C1 (stereo unspecified),140 to 142
22,Cc1cccc(C)c1NCC(C)Nc1c(C)cccc1C (stereo unspecified),52 to 55

row,SMILES,melting point [°C]
1,CCOC(COc1ccc(Cl)c2cccnc12)OCC,51 to 53
2,COc1ccc(C(=O)Nc2cc([N+](=O)[O-])ccc2C)cc1OC,> 300
3,CCc1ccc2c(c1)C=Cc1cc(C)ccc1C2c1cn(-c2ccnc(N3CCCC3C(=O)O)n2)c(=O)[nH]c1=O (stereo unspecified),185
4,CC(=O)OC1CC(CO)OC1n1ccc(=O)[nH]c1=O (stereo unspecified),148 to 149
5,O=[N+]([O-])CC1(SCc2ccccc2)CCC2(CC1)OCCO2,121 to 122
6,OCCCn1c(S)nc2ccccc21,110
7,Cc1cc(C)cc(Oc2c(C(C)C)c(=O)[nH]c(=O)n2CCC2C=CCC2)c1 (stereo unspecified),148 to 149
8,CC(=O)Nc1ccc(C(C)(C)C)cc1CN(C)C1CCCCC1,111 to 112
9,COc1cc(N)c2nccc(C)c2c1OCCCCCc1ccco1,41 to 42
10,CC(C)(C)OC(=O)N1CCC(c2c[nH]c3ccc(N)cc23)CC1,205 to 207
11,COC(=O)c1cn2c(n1)COc1ccc(N)cc1-2,213 to 214
12,COc1cc(N=c2scc(-c3ccc(Cl)c(S(=O)(=O)N(C)C)c3)n2C)cc(OC)c1OC,119 to 122
13,COC(=O)C(C)c1ccc2c(c1)Cc1cc(OC)ccc1-2 (stereo unspecified),98.5 to 100
14,N#Cc1cc(I)c(N)c(C(F)(F)F)c1,86 to 88
15,CC(C)c1nc(CCO)n(Cc2ccc([N+](=O)[O-])cc2)c1Sc1cc(Cl)cc(Cl)c1,142 to 145
16,CC(C)(C)CNc1nc(C#Cc2ccccc2)ccc1[N+](=O)[O-],90 to 92
17,CCOC(=O)c1c(C)nn(-c2cccc(C)c2)c1C,46.5 to 47.5
18,CC(C)NCC1CCN(c2c(F)cc3c(=O)c(C(=O)O)cn(C4CC4)c3c2F)C1 (stereo unspecified),218 to 221
19,COC(=O)c1[nH]c(C)c(C)c1O,170 to 172
20,Cc1nc2ccc(C(=O)O)[nH]c-2c1Cc1ccc(Cl)cc1Cl,235 to 236
21,Cc1cccc(N=C2NCCN2)c1C,141 to 144
22,C=Cc1cn(-c2c(Cl)cc(C(F)(F)F)cc2Cl)nc1C#N,75 to 76

row,SMILES,melting point [°C]
1,COc1c2c(c(OC(C)=O)c3c1C(=O)c1c(cc(OC(C)=O)c(C)c1OC(C)=O)C3=O)-c1c(cc3cnn(-c4ccccc4)c(=O)c3c1OC(C)=O)CC2,273
2,CCCC(=O)c1cnc2c(OC)cccc2c1Nc1c(C)cc(O)c(O)c1C,151 to 153
3,NC(=S)c1cc(Cl)c(Cl)c(Cl)n1,168 to 169
4,CO/C=C(/C(=O)OC)c1ccccc1Oc1cc(Cl)nc(Cl)n1,88 to 90
5,COC(=O)C=CC1C(C(=O)OC(C)(C)C)C1(C)C (stereo unspecified),67
6,CCn1cc(Cl)c2cnc(NC(=O)c3ccc([C@](C)(O)CO)cc3)cc21,223 to 224
7,CCC1N=C(c2ccccc2Cl)c2cc(CCC(=O)N3CCOCC3)sc2-n2c(C)nnc21 (stereo unspecified),145 to 147
8,CC(=O)N1[C@@H](C(=O)O)C(C)(C)S[C@H]1c1ccccc1,216 to 217
9,CCN(CC1OCCO1)c1c([N+](=O)[O-])cc(S(C)(=O)=O)cc1[N+](=O)[O-],125 to 127
10,O=C(C1CSC(c2cccnc2)N1)N1CCN(c2ncccn2)CC1 (stereo unspecified),156 to 159
11,CCOC(=O)C(C)(C)S(=O)(=O)c1ccc(OC)cc1,196
12,CC(C)c1cc(Br)c(C(C)C)cc1S,72 to 75
13,CCOCc1nc2c(N)nc3ccccc3c2n1CCN1C(C)=NOC1(C)C,204 to 205
14,CC(C)c1cc(Oc2ccc(Cl)cc2)nc(C(C)C)c1N=C=NC(C)(C)C,46 to 55
15,CC(C)(C)OC(=O)N(OCc1ccccc1)C(=O)OC(C)(C)C,77.5 to 78.5
16,O=C(NCCNc1c(Cl)cncc1Cl)C1CCN(c2c(Cl)cncc2Cl)CC1,157 to 159
17,CC1Cc2c(F)cc(F)cc2C1=O (stereo unspecified),68 to 69
18,COc1cc2c(cc1Nc1ncc(Cl)c(Nc3cc(C#N)ccc3OC)n1)CCN(CC(N)=O)CC2,100 to 125
19,O=C(O)c1cc(/C=C/c2ccc(O)cc2)ccc1O,241 to 243
20,CC(=C1SCCCS1)c1cccc(O)c1,63 to 64
21,COC(=O)NC(=O)c1nc(Cl)c(Cl)[nH]1,247

# Other lines, results leading:
row,melting point [°C],SMILES
1,178 to 182,O=C(O)Cc1cccc(C=C(C(=O)O)c2nc(-c3ccccc3)c(-c3ccccc3)o2)c1
2,225,Cc1nc2cccc(S(=O)(=O)n3c(CCCC(=O)O)cc4nc(Cl)ccc43)c2s1
3,140 to 141,CN(C)Cc1cccc(OCCCNc2nc(Cc3ccccc3)n[nH]2)c1
4,157 to 159,NC1=NC2(CN(C(=O)OCc3ccccc3)C2)Nc2cccc(F)c21
5,217 to 218,Cc1cc(C(=O)O)ccc1NC(=O)C(CS)Cc1ccccc1 (stereo unspecified)
6,108 to 115,C[C@H](c1ccccc1)n1c(=O)c2c(N3CCN(C)CC3)cc(Cl)cc2n(Cc2ccccc2)c1=O
7,158 to 160,O=C1NCCC[C@@H]1NS(=O)(=O)c1cccc(C(F)(F)F)c1
8,106 to 107,c1ccc2nc(Cn3ccnc3)ccc2c1
9,183 to 184,COCCCNc1cccc(Oc2ccc(-c3cn(C4CCOC4)c4ncnc(N)c34)cc2)c1C#N (stereo unspecified)
10,204 to 205,COc1nc(C)cnc1NS(=O)(=O)c1cccnc1-c1ccc(OCc2ccc(C(=O)O)cc2)cc1
11,165 to 167,CC(C)NCc1ccc(COc2cccc3c2CN(C2CCC(=O)NC2=O)C3=O)cc1 (stereo unspecified)
12,193 to 202,O=C1N[C@@H](C(=O)NO)C[C@H]1c1ccc(-c2ccc(F)cc2)cc1
13,165 to 166,CC(C)(C)OC(=O)[C@H](COC(=O)N(N)c1ccc(CC(=O)O)cc1)C(=O)OC(c1ccccc1)c1ccccc1
14,140 to 142,Cc1cc(C)c(S(=O)(=O)Nc2cccnc2Nc2ccccc2)c(C)c1
15,127 to 130,O=C(O)C(=O)c1ccc(OCCCCCCc2cccc(O)c2O)cc1
16,132 to 134,O=C(C=P(c1ccccc1)(c1ccccc1)c1ccccc1)CSc1ccccc1
17,136 to 138,COc1ccc(S(=O)(=O)N2c3cc(Br)sc3-c3ccccc3[C@H]2C)cc1
18,101,CCCCCCCNC(=O)N(C)c1cccc(-c2ccc(CCC(=O)O)cc2)c1

row,melting point [°C],SMILES
1,149 to 150,O=C(Nc1ccc(Cl)cc1C(=O)NCc1ccc2c(c1)OCO2)Oc1ccccc1
2,274 to 280,O=C1CCC(c2ccc(N=C(CCCc3ccccc3)c3ccc(O)cc3O)cc2)=NN1
3,215 to 216,Nc1ccccc1NC(=O)c1cc2cc(OCCO)ccc2s1
4,254 to 255,O=C1CCCc2c(-c3ccccc3)[nH]c(-c3ccncc3)c21
5,86 to 88,CCOC(=O)C1=C(C)NC(COC(=O)COc2ccc(Cl)cc2)=C(C(=O)OCC)C1c1ccccc1[N+](=O)[O-] (stereo unspecified)
6,58 to 60,C[C@@H](S[C@H]1CO[C@H](c2ccccc2)OC1)[C@](O)(Cn1cncn1)c1ccc(F)cc1F
7,255 to 256,CN1C(=O)C2=C(c3ccc(Br)cc3)N(c3ccccc3)C(=O)C2=C1c1ccccc1
8,87 to 89,CCCCCCCC(=O)OCc1ccccc1-c1nc(-c2cccc(OCC)c2)n[nH]1
9,155,O=c1c(CCCCCc2cccnc2)cc2cccnc2n1-c1cccc([N+](=O)[O-])c1
10,169 to 171,COc1ccc(Cn2nc(COC(C)(C)C(=O)O)c3ccccc32)cc1
11,83 to 84,COc1ccc(C=CC(=O)c2cccc(OCCCCCBr)c2)cc1
12,113 to 116,CCCCCCCCCN(C)c1ccc(S(=O)(=O)Nc2ccccc2)cc1
13,65 to 115,CC(=O)N(O)Cc1ccc2c(c1)OCc1ccccc1C2=O
14,130 to 132,O=C(COCc1ccccc1Cl)Nc1ccccc1
15,192,Cn1c(=O)cc(-c2cccc(Cl)c2)c2cc(C(=O)c3ccoc3)ccc21
16,123,O=C(NCCc1ccccn1)c1ccccc1-c1ccccc1CNS(=O)(=O)c1cccc(F)c1
17,185 to 186,O=c1oc(-c2ccccc2)cc(O)c1SCc1ccc(OCc2ccccc2)cc1
18,193 to 195,Nc1ccc(CCN2CCC(NC(=O)c3ccccc3)CC2)cc1
